Six compounds from ChEMBL document CHEMBL1158064, “Depsidones from the endophytic fungus BCC 8616” (J Nat Prod, 2006) can be followed below.

One may read the IC50 as the point on the concentration scale where inhibition reaches its midpoint. Lower therefore signals greater potency.

In brackets after ≈: the same amount, converted by molar mass. A value given as a limit tells only on which side of the number the result lay.

Assay [1] can be described thus: Cytotoxicity against human BC cells by colorimetric method. The assay is classed as functional, cell-based.
In the next assay the test system is KB. In words: Cytotoxicity against human KB cells by colorimetric method. The assay is classed as functional, cell-based.

As to `C/C=C(\C)c1cc(O)c(C)c2c1Oc1c(CO)c(O)cc(/C(C)=C/C)c1C(=O)O2`, the 50% inhibitory concentration (IC50) (in assay [1]; with KB) was over 5 µg/mL in each case. As to `C/C=C(\C)c1cc(O)c(C)c2c1Oc1c(C=O)c(O)cc(/C(C)=C/C)c1C(=O)O2`, the IC50 in assay [1] came to 4.1 µg/mL (≈ 10.4 µM); in the assay with KB, 6.5 µg/mL (≈ 16.5 µM).

In the case of `C/C=C(\C)c1cc(O)c(C)c2c1Oc1c(COC)c(O)cc(/C(C)=C/C)c1C(=O)O2`, the half-maximal inhibitory concentration (IC50) (in assay [1]; in the assay with KB) was over 5 µg/mL in each case. Turning to `C/C=C(\C)c1cc(OC)c(C)c2c1Oc1c(CO)c(O)cc(/C(C)=C/C(=O)O)c1C(=O)O2` [AURANTICIN A], the 50% inhibitory concentration (IC50) (in assay [1]; in the assay with KB) was over 5 µg/mL in each case. In assay [1], `COc1cccc2c1C(=O)c1c(O)c3c(c(O)c1C2=O)C[C@@](O)(C(=O)CO)C[C@@H]3O[C@H]1C[C@H](N)[C@H](O)[C@H](C)O1` [DOXORUBICIN] came in with an IC50 of 0.17 µg/mL (≈ 0.313 µM). As for `Cc1c2ccncc2c(C)c2c1[nH]c1ccccc12` [ELLIPTECINE], the IC50 in assay [1] was determined as 0.14 µg/mL (≈ 0.568 µM); in the assay on KB, 0.21 µg/mL (≈ 0.853 µM).
